Experimental data from patent US5589472A, “Diindolo compounds and pharmaceutical compositions containing them” (priority 1995, dated 1996).
Where two headings read alike, the source gives them in different places.

Assays:
[1] = molecular target: Protein Kinase C ("PKC"); experiment: Protein Kinase C (PKC) in vitro inhibition (histone III-S phosphorylation); type: biochemical; settings: partially purified rat brain PKC, 5 μM ATP, 23° C., 15 minutes
Procedure: A. Protein Kinase C ("PKC") Protocol
Protein Kinase C (PKC) was partially purified from rat brain by chromatography on DEAE-Sephacel according to Shearman et al, Methods in Enzymology […] (1989) and Bishop et al, Biochemical Pharmacology 40:2129-2135 (1990)which are hereby incorporated by reference. PKC was assayed in a reaction mixture (0.25 mL total volume) containing: 20 mM Tris-HCl (pH 7.5); 200 μg/mL histone III-S 10 mM MgCl2; 5 μM [γ-^32 ] ATP (4×10^6 cpm/nmol); 200 μM CaCl2; 32 μg/mL phosphatidylserine; 1.6 μg/mL 1-oleoyl-2-acetyl glycerol and various concentrations of compounds of formula I of the invention were added from stock solutions in dimethylsulfoxide (DMSO). The final concentration of DMSO in the reaction was 2%. Reactions were started by addition of approximately 7 μg of partially purified PKC and allowed to proceed at 23° C. for 15 minutes. Reactions were terminated by addition of 1 mL of ice-cold 15% trichloracetic acid and 1 mL of cold 0.5 mg/mL bovine serum albumin to precipitate the histone III-S substrate. After 10 minutes on ice, precipitated phosphoproteins were collected on Whatman GF/C filters using a Brandel cell harvester. Filters were placed in scintillation vials with 5 mL of Ready Safe scintillation cocktail and radioactivity trapped on the filter was quantitated by liquid scintillation counting. Percent inhibition of PKC activity was calculated relative to the activity observed in the DMSO controls.

[2] = system: HT1080 human fibrosarcoma cells; experiment: Tumor Cell Invasion Assay (Matrigel); type: cell-based; settings: HT-1080, @ 45 μg/mL, 5 hours at 37° C.
Procedure: Tumor Cell Invasion Assay
The cell invasion assay quantitates the ability of malignant cells to invade a reconstituted basement membrane matrix. The assay is performed essentially as described in the two articles which are cited at the end of this sentence and which are herein incorporated by reference. Kramer et al Invasion of reconstituted basement membrane matrix by metastatic tumor cells. Cancer Res. 46: […]; and Albini et al A Rapid in vitro assay for quantitating the invasive potential of tumor cells. Cancer Res. 3239-3245, 198. Modifications were made to permit evaluation of pharmacologic effectors in this system and to increase screening throughput.
Polyvinylpyrrolidone-free polycarbonate filters (25×80 mm; 8 μm pore size (Nucleopore, Pleasantan, Calif.) were coated with 100 μg human fibronectin (Boehringer-Mannheim Corp., Indianapolis, Ind.) for 1 hour, permitted to air dry 5 to 10 minutes, and then coated overnight with Matrigel (500 μg/filter; Collaborative Research, Bedford, Mass.). Filters were then rehydrated with serum-free DMEM and assembled into 48-microwell chemotaxis chambers (Neuroprobe, Cabin Johbn, Md.). See Blood et al Identification of a tumor cell receptor for VGVAPG, an elastin-derived chemotactic peptide. J. Cell Biol. 107:1987-1994, 1988 which is herein incorporated by reference. Compounds tested were placed in upper wells of the chambers with HT1080 human fibrosarcoma cells (3.5×10^4 cells/well). For primary screens the final concentration of compounds was 45 μg/ml.
Chambers were incubated for 5 hours at 37° C. in a 5% CO2 humidified atmosphere. After incubation chambers were disassembled and the filters were fixed and stained with Diff-Quik reagents (Baxter Scientific, McGaw Park, Ind.). […] The filter was then mounted between 2 glass slides and tumor cells that had invaded the Matrigel barrier in each microwell were quantitated as "% area covered by cells" with a Cue-2 Image Analysis System (Olympus Corp., Lake Success, N.Y.). When assayed under these conditions HT1080 cells (with or without Dimethylsulfoxide (DMSO) as a vehicle control) typically invade such that 34-40% surface is covered by cells and an invasion to this degree is defined as 100% invasion for the purposes of this test. Effects of compounds on the invasion are expressed as % inhibition based on the value obtained with vehicle control.

[3] = system: Superoxide generation in human neutrophils; experiment: Neutrophil test: inhibition of superoxide generation in human neutrophils; type: cell-based; settings: 0.25 h, SO release induced by fMLP (100 nM) or PMA (100 nM), stimulus not stated, 15 minutes at 37° C.
Excerpt: Inhibition of Superoxide Generation in Human Neutrophils
One of the histological changes which occurs in psoriasis is infiltration of neutrophils into epidermis and dermis. Superoxide (SO) generation by neutrophils causes oxidative tissue damage during inflammatory processes. PKC plays an essential role in SO release in neutrophils. Formyl peptides (fMLP), important chemoattractants involved in cell recruitment to local inflammatory sites, promote the release of SO anion. The tumor promoting phorbol ester, phorbol-12 myristate-13-acetate (PMA), also induces SO release.
Neutrophils were prepared from human peripheral blood. SO release was induced by fMLP (100 nM) or PMA (100 nM) and measured as SO dismutase-inhibitable reduction of cytochrome c. Preincubation of the compound tested with 3-5×10^6 cells was for 15 minutes in the presence of cytochalasin B ([…]) before addition of the stimulant, fMLP or PMA. 15 minutes after stimulation at 37° C., the reaction was stopped. The quantity of SO anion release was determined as the difference between the absorbance at 550 nm in the presence and absence of SO dismutase.
Antiinflammatory activity of the compounds of the invention was determined by use of the processes set forth in the following literature which is hereby incorporated by reference. Fischer et al Carcinogenesis 11:[…]; and Gupta et al Soc. Inv. Dermotol 91:5, 486-491, 1988 and Nakadate et al J. Pharmacolo. 38 161-168,(1985); and Viaje et al Cancer Res. 37,1530-1536, 1977.

[4] = system: Mouse skin; experiment: Mouse Skin Assay (TPA-induced blister formation); type: in vivo; settings: compound in acetone (25 μl), then TPA (12.5 μl); evaluated 18 hours after treatment
Procedure: Mice were treated first with compounds dissolved in acetone (25 μl), and then 30 seconds with TPA (12.5 μl). Blister formation was evaluated 18 hours after treatment. Each mouse was scored on a scale of 1-4 where 4 equals presence of a complete blister, 3 equals slight reduction in blister formation, 2 equals a 50% reduction in blister formation and 1 equals a complete absence of blisters.

[5] = read-out: IN VITRO INHIBITION OF PKC IC50 (nanomolar) except where otherwise indicated
[6] = read-out: IN VITRO INHIBITION OF PKC IC50 (unit indicated in cell)

Structure (SMILES) | IC50 [1, 5] [nM] | IC50 [1, 6] [nM] | IC50 [3] [nM] | inhibition at 45 µg/mL [2] [%] | Mouse Skin (active/inactive by visual evaluation of blister formation) [4]
C[C@@H]1n2c3ccccc3c3c4c(c5c6ccccc6n(c5c32)[C@@H](C)S1(=O)=O)C(=O)NC4=O (relative stereo) [trans-25] | 120 |  |  |  | 
N=C1NC(=O)c2c1c1c3ccccc3n3c1c1c2c2ccccc2n1CN(Cc1ccccc1)C3 [Compound 1] |  | > 5000 |  |  | 
O=C1NC(=O)c2c1c1c3ccccc3n3c1c1c2c2ccccc2n1CN(Cc1ccccc1)C3 [Compound 2] |  | > 50000 |  | 35 | 
O=C1NC(=O)c2c1c1c3ccccc3n3c1c1c2c2ccccc2n1CN(O)C3 [Compound 3] | 90 |  |  | 48 | 
O=C1NC(=O)c2c1c1c3ccccc3n3c1c1c2c2ccccc2n1CNC3 [Compound 4] | 145 |  |  | 86 | 
CN1Cn2c3ccccc3c3c4c(c5c6ccccc6n(c5c32)C1)C(=O)NC4=O [Compound 6] | 86 |  |  | 66 | 
CN(C)CCN1Cn2c3ccccc3c3c4c(c5c6ccccc6n(c5c32)C1)C(=O)NC4=N [Compound 8] | 160 |  |  | 46 | 
CN(C)CCN1Cn2c3ccccc3c3c4c(c5c6ccccc6n(c5c32)C1)C(=O)NC4=O [Compound 9] | 120 |  |  | 52 | 
O=C1NC(=O)c2c1c1c3ccccc3n3c1c1c2c2ccccc2n1CN(CCO)C3 [Compound 10] | 17 |  |  | 72 | 
COCCOCCOCCN1Cn2c3ccccc3c3c4c(c5c6ccccc6n(c5c32)C1)C(=O)NC4=O [Compound 12] | ~100 |  |  | 20 | 
CN1Cn2c3ccccc3c3c4c(c5c6ccccc6n(c5c32)C1)C(=O)NC4 [Compound 13] | 90 |  |  | 26 | 
O=C1NC(=O)c2c1c1c3ccccc3n3c1c1c2c2ccccc2n1CSC3 [Compound 18] | 14 |  | > 10000 | 18 | 
O=C1NC(=O)c2c1c1c3ccccc3n3c1c1c2c2ccccc2n1C[S+]([O-])C3 [Compound 20] | 19 |  | > 10000 |  | 
O=C1NCc2c1c1c3ccccc3n3c1c1c2c2ccccc2n1CS(=O)(=O)C3 [Compound 23] | 5 |  | 900 | 57 | active
C[C@@H]1n2c3ccccc3c3c4c(c5c6ccccc6n(c5c32)[C@H](C)S1(=O)=O)C(=O)NC4=O [cis-25] | 2.4 |  |  |  | 

Continued by falling IC50 [1, 5], values first:

IC50 [1, 5] [nM] | IC50 [1, 6] [nM] | IC50 [3] [nM] | Structure (SMILES) | inhibition at 45 µg/mL [2] [%] | Mouse Skin (active/inactive by visual evaluation of blister formation) [4]
~500 |  |  | COCCOCCOCCN1Cn2c3ccccc3c3c4c(c5c6ccccc6n(c5c32)C1)C(=O)NC4=N [Compound 11] | 42 | 
480 |  |  | O=C(O)CN1Cn2c3ccccc3c3c4c(c5c6ccccc6n(c5c32)C1)C(=O)NC4=O [Compound 7] | 0 | 
150 |  |  | CN1Cn2c3ccccc3c3c4c(c5c6ccccc6n(c5c32)C1)C(=O)NC4=N [Compound 5] | 46 | 
62 |  |  | N=C1NC(=O)c2c1c1c3ccccc3n3c1c1c2c2ccccc2n1COC3 [Compound 15] | 30 | 
24 |  | > 10000 | N=C1NC(=O)c2c1c1c3ccccc3n3c1c1c2c2ccccc2n1CSC3 [Compound 17] | 53 | 
11 |  |  | O=C1NC(=O)c2c1c1c3ccccc3n3c1c1c2c2ccccc2n1COC3 [Compound 16] | 46 | 
7 |  |  | O=C1NCc2c1c1c3ccccc3n3c1c1c2c2ccccc2n1CSC3 [Compound 19] | 100 | 
2 |  | 1600 | O=C1NC(=O)c2c1c1c3ccccc3n3c1c1c2c2ccccc2n1CS(=O)(=O)C3 [Compound 26] |  | inactive
